Results taken from PubChem BioAssay AID1996.
In brackets after ≈: the same amount, converted by molar mass.

Details: buffer; pH 7.4; 200.0 µM

Row | SMILES | solubility kinetic [µg/mL]
1 | COc1ccccc1NC(=O)C1=C(C)NC(=O)NC1c1ccco1 (stereo not given) | > 49.1
2 | C#CC(CC)(CC)NC(=O)/C=C/C(=O)O | 27.7 (≈ 132 µM)
3 | CNC(=O)N(C)c1ccc(C(O)(C(=O)OC)C(F)(F)F)cc1 (stereo not given) | 46.7 (≈ 146 µM)
4 | Cc1ccc(CN2CCSCC2)cc1 | 7.4 (≈ 35.7 µM)
5 | CC1CCC2(CC1)NC(=O)N(CC(=O)Nc1ccc3c(c1)OCO3)C2=O (stereo not given) | 15.6 (≈ 43.4 µM)
6 | COc1ccc(Cl)cc1N=Cc1c(O)c2ccccc2oc1=O | < 0.7
7 | O=C(O)C1CCCN1C1=NS(=O)(=O)c2ccccc21 (stereo not given) | > 42
8 | CCCOc1ccc(NC(=O)c2cc3cc(C)ccc3[nH]2)cc1 | < 0.3
9 | O=C1CN(C(=O)/C=C/c2ccc(Br)cc2)CCN1 | 41.8 (≈ 135 µM)
10 | COc1ccc(-n2cc(-c3ccccc3)c3c(=S)nc[nH]c32)cc1 | 0.6 (≈ 1.8 µM)
11 | CN(C(=O)COC(=O)c1ccc(Br)c(S(=O)(=O)N2CCOCC2)c1)C1CCCCC1 | > 75.5
12 | CCOC(=O)c1cc(C#N)c(N2CCNCC2)nc1C(F)(F)F | > 49.2
13 | O=C(NC1CCCCC1)c1cc2cc(Br)ccc2o1 | < 0.7
14 | Cc1ccccc1N1C(=O)C2CCCN2C1=S (stereo not given) | > 36.9
15 | O=C(CCc1ccc(S(=O)(=O)N2CCOCC2)cc1)OCC(=O)c1ccc(Br)cc1 | 6.7 (≈ 13.5 µM)
16 | N/C(=N\OC(=O)c1ccccc1F)c1cccc([N+](=O)[O-])c1 | 2.1 (≈ 6.93 µM)
17 | Cc1nc(SC(C)C(=O)NC2CCCCC2C)c2c(C)c(C)sc2n1 (stereo not given) | < 0.3
18 | CCc1cc(N2CCOCC2)cc2c1[nH]c1ccccc12 | > 42.1
19 | Cc1c(N)cc(N)cc1C(=O)O | > 24.9
20 | O=C(N1CCN(Cc2ccc3c(c2)OCO3)CC1)C(Cl)(Cl)Cl | 37.6 (≈ 103 µM)

Row | SMILES | solubility kinetic [µg/mL]
21 | Cc1cc(OCCCN2CCCC2)ccc1Cl | 26.8 (≈ 106 µM)
22 | Cc1cccc(C)c1NC(=S)N/N=C/c1ccc(C(=O)O)cc1 | > 49.1
23 | CCCNc1nc(Cl)nc(Nc2ccc(Cl)cc2)n1 | 1.1 (≈ 3.69 µM)
24 | Cc1nc(N2CCOCC2)c2c3c(sc2n1)CCC3 | 34.4 (≈ 125 µM)
25 | Cc1ccccc1CNS(=O)(=O)c1csc(C(N)=O)c1 | > 46.6
26 | CCOc1ccc(N2CC(C(=O)NCc3ccccn3)CC2=O)cc1 (stereo not given) | 37.5 (≈ 110 µM)
27 | CCOc1ncccc1C(=O)Nc1cc2c(cc1Br)OCCO2 | 6.5 (≈ 17.1 µM)
28 | CC(=O)Nc1ccc(CNC(=O)C[N+]2(C)CCOCC2)cc1.[Cl-] | 46.2
29 | NC(=O)C1CCCNC1 (stereo not given) | > 19.2
30 | O=C(c1cccs1)N1CCN=C1SCc1ccccc1F | < 0.3
31 | O=C1/C(=C/c2ccccn2)SC(=S)N1Cc1ccccc1 | < 0.3
32 | O=C(COC(=O)c1ccccc1O)NCc1ccccc1Cl | 5 (≈ 15.6 µM)
33 | CSc1nsc(SCC(=O)Nc2ccc(OC(C)=O)cc2)n1 | 2.8 (≈ 7.88 µM)
34 | COc1ccc(Cl)cc1NC(=O)CN(C)C(=O)C1CC1 | > 44.5
35 | COc1ccc(NC(=O)C2(c3cccs3)CCOCC2)cc1 | 36.4 (≈ 115 µM)
36 | O=C(/C=C/c1ccccc1)Nc1cc(NC(=O)/C=C/c2ccccc2)cc(C(=O)O)c1 | 52.7 (≈ 128 µM)
37 | CNc1cc(C)c(C#N)c2nc3ccccc3n12 | 2.6 (≈ 11 µM)
38 | C[n+]1ccn(CC(=O)c2cccs2)c1.[Br-] | 39
39 | O=C(NCC(=O)N1CCCC1)c1ccc(Cl)cc1 | > 40
40 | O=C(c1cc2ccccc2o1)N1CCN(c2ccccn2)CC1 | 11.4 (≈ 37.1 µM)

Row | SMILES | solubility kinetic [µg/mL]
41 | O=C1NCC(NC(=O)C(F)(F)F)c2cc3c(cc21)OCO3 (stereo not given) | > 45.3
42 | CC(C)(C)c1ccc(OCC(O)CN2CCc3ccccc3C2)cc1.Cl (stereo not given) | 11.7
43 | Cc1ccc(C(=O)Nc2cccnc2)cc1Cl | 35.6 (≈ 144 µM)
44 | O=C(COC(=O)c1ccc([N+](=O)[O-])o1)Nc1ccc2c(c1)OCO2 | 16.9 (≈ 50.6 µM)
45 | O=C(NCc1ccccc1)C1CCCN(c2cnccn2)C1 (stereo not given) | > 44.5
46 | O=C(OCC(=O)N1CCCC1)c1c(Cl)ccc(Cl)c1Cl | 39 (≈ 116 µM)
47 | O=C(COC(=O)Cc1ccccc1F)NCCc1ccccc1 | > 47.3
48 | CN1CCN(C(=O)CCC(=O)NCc2ccc(F)cc2)CC1 | 45.7 (≈ 149 µM)
49 | CC(=O)Nc1ccc(S(=O)(=O)N(C)c2ccc(OCCOc3cccc(C)c3)cc2)cc1 | 5 (≈ 11 µM)
50 | COC(=O)c1sccc1NC(=O)CNC(=O)c1ccccc1 | > 47.8
51 | O=C(Nc1ccc(Br)cc1)c1cccnc1N1CCOCC1 | > 54.3
52 | COc1ccc2c(c1OC)C(=O)N(c1ccc(O)cc1)C2 | 6.3 (≈ 22.1 µM)
53 | CC(c1ccccc1)c1nnc(N)s1 (stereo not given) | > 30.8
54 | O=C(Nc1ccccc1F)c1ccc2c(c1)OCO2 | > 38.9
55 | CCOCCn1c(-c2ccccc2)nc2ccccc21 | 39.5 (≈ 148 µM)
56 | CC(=O)NC(C)Cc1cn(Cc2ccccc2)c2ccccc12 (stereo not given) | > 46
57 | CCOC(=O)Cn1c(=O)oc2ccc(C)cc21 | > 35.3
58 | COC(=O)/C(C#N)=C/c1c(Oc2cccc(C)c2C)nc2ccccn2c1=O | 1 (≈ 2.66 µM)
59 | CCN(C(=O)C(=O)c1c[nH]c2ccccc12)c1ccccc1 | > 43.9
60 | COC(=O)c1c(NC(C)=O)sc(C(=O)Nc2ccccc2F)c1C | < 0.4
